BigSolDB 2.1

O=C1CCC(=O)O1
solubility (mole fraction) (in acetone, 278.15 K): 0.0721 | solubility (mole fraction) (in acetone, 283.15 K): 0.0863 | solubility (mole fraction) (in acetone, 288.15 K): 0.103 | solubility (mole fraction) (in acetone, 293.15 K): 0.121 | solubility (mole fraction) (in acetone, 298.15 K): 0.143 | solubility (mole fraction) (in acetone, 303.15 K): 0.166 | solubility (mole fraction) (in acetonitrile, 278.15 K): 0.114 | solubility (mole fraction) (in acetonitrile, 283.15 K): 0.121 | solubility (mole fraction) (in acetonitrile, 288.15 K): 0.129 | solubility (mole fraction) (in acetonitrile, 293.15 K): 0.137 | solubility (mole fraction) (in acetonitrile, 298.15 K): 0.146 | solubility (mole fraction) (in acetonitrile, 303.15 K): 0.156 | solubility (mole fraction) (in ethyl acetate, 278.15 K): 0.0485 | solubility (mole fraction) (in ethyl acetate, 283.15 K): 0.0544 | solubility (mole fraction) (in ethyl acetate, 288.15 K): 0.0611 | solubility (mole fraction) (in ethyl acetate, 293.15 K): 0.0684 | solubility (mole fraction) (in ethyl acetate, 298.15 K): 0.0771 | solubility (mole fraction) (in ethyl acetate, 303.15 K): 0.0853 | solubility (mole fraction) (in isopropanol, 278.15 K): 0.0502 | solubility (mole fraction) (in isopropanol, 283.15 K): 0.0562 | solubility (mole fraction) (in isopropanol, 288.15 K): 0.0632 | solubility (mole fraction) (in isopropanol, 293.15 K): 0.0705 | solubility (mole fraction) (in isopropanol, 298.15 K): 0.0793 | solubility (mole fraction) (in isopropanol, 303.15 K): 0.0889
